{"source": "PubChem BioAssay AID256", "about": "(DTP/NCI, 2004)", "system": "CD2F1 mice, L1210 leukemia ip, survival T/C", "experiment": "NCI In Vivo Anticancer Drug Screen. Data for tumor model L1210 Leukemia (intraperitoneal) in CD2F1 (CDF1) mice", "conditions": "higher = longer survival", "summary_of_the_method": "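Mice carrying a transplanted tumor received test compound or vehicle alone. The value is the measurement in the treated group divided by that in the vehicle-treated control group.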", "key": {"[1]": {"conditions": "endpoint: mean survival time, dose: 12.5 mg/kg/injection, schedule: Q04DX002 (ip), vehicle: saline with Tween-80"}, "[2]": {"conditions": "endpoint: mean survival time, dose: 25.0 mg/kg/injection, schedule: Q04DX002 (ip), vehicle: saline with Tween-80"}, "[3]": {"conditions": "endpoint: mean survival time, dose: 50.0 mg/kg/injection, schedule: Q04DX002 (ip), vehicle: saline with Tween-80"}, "[4]": {"conditions": "endpoint: mean survival time, dose: 100.0 mg/kg/injection, schedule: Q04DX003 (ip), vehicle: saline with Tween-80"}, "[5]": {"conditions": "endpoint: mean survival time, dose: 50.0 mg/kg/injection, schedule: Q01DX009 (ip), vehicle: saline with Tween-80"}, "[6]": {"conditions": "endpoint: mean survival time, dose: 100.0 mg/kg/injection, schedule: Q01DX009 (ip), vehicle: saline with Tween-80"}, "[7]": {"conditions": "endpoint: mean survival time, dose: 200.0 mg/kg/injection, schedule: Q01DX009 (ip), vehicle: saline with Tween-80"}}, "note": "Several values for one entry are separate records, joined by “and”; a condition that tells them apart may be missing. Equal values may be shown once. Toxic doses and inconclusive results are not listed."}
{"smiles": "CCn1ccc(=O)nc1", "values": [{"measurement": "T/C", "setting": "[1]", "result": "95 % of control"}, {"measurement": "T/C", "setting": "[2]", "result": "95 % of control"}, {"measurement": "T/C", "setting": "[3]", "result": "106 % of control"}]}
{"smiles": "O=C(/C(Br)=C/c1ccccc1[N+](=O)[O-])c1ccccc1", "values": [{"measurement": "T/C", "setting": "endpoint: mean survival time, dose: 100.0 mg/kg/injection, schedule: Q01DX001 (ip), vehicle: saline with Tween-80", "result": "98 % of control"}, {"measurement": "T/C", "setting": "endpoint: mean survival time, dose: 200.0 mg/kg/injection, schedule: Q01DX001 (ip), vehicle: saline with Tween-80", "result": "95 % of control"}, {"measurement": "T/C", "setting": "endpoint: mean survival time, dose: 400.0 mg/kg/injection, schedule: Q01DX001 (ip), vehicle: saline with Tween-80", "result": "98 % of control"}]}
{"smiles": "CN1COc2c(Cl)cc(Cl)cc2C1", "values": [{"measurement": "T/C", "setting": "endpoint: mean survival time, dose: 25.0 mg/kg/injection, schedule: Q01DX009 (ip), vehicle: saline", "result": "104 % of control"}, {"measurement": "T/C", "setting": "endpoint: mean survival time, dose: 50.0 mg/kg/injection, schedule: Q01DX009 (ip), vehicle: saline", "result": "104 % of control"}, {"measurement": "T/C", "setting": "endpoint: mean survival time, dose: 100.0 mg/kg/injection, schedule: Q01DX009 (ip), vehicle: saline", "result": "115 % of control"}, {"measurement": "T/C", "setting": "[4]", "result": "98 % of control"}]}
{"smiles": "COc1ccc(OC)c(Cc2cnc3nc(N)nc(N)c3c2C)c1", "values": [{"measurement": "T/C", "setting": "endpoint: median survival time, dose: 2.5 mg/kg/injection, schedule: Q01DX009 (ip), vehicle: dextrose", "result": "103 % of control"}, {"measurement": "T/C", "setting": "endpoint: median survival time, dose: 5.0 mg/kg/injection, schedule: Q01DX009 (ip), vehicle: dextrose", "result": "101 % of control and 102 % of control"}, {"measurement": "T/C", "setting": "endpoint: median survival time, dose: 6.25 mg/kg/injection, schedule: Q01DX009 (ip), vehicle: water", "result": "95 % of control"}, {"measurement": "T/C", "setting": "endpoint: median survival time, dose: 10.0 mg/kg/injection, schedule: Q01DX009 (ip), vehicle: dextrose", "result": "101 % of control and 102 % of control"}, {"measurement": "T/C", "setting": "endpoint: median survival time, dose: 12.5 mg/kg/injection, schedule: Q01DX009 (ip), vehicle: water", "result": "98 % of control"}, {"measurement": "T/C", "setting": "endpoint: median survival time, dose: 20.0 mg/kg/injection, schedule: Q01DX009 (ip), vehicle: dextrose", "result": "106 % of control and 112 % of control"}, {"measurement": "T/C", "setting": "endpoint: median survival time, dose: 25.0 mg/kg/injection, schedule: Q01DX009 (ip), vehicle: water", "result": "111 % of control"}, {"measurement": "T/C", "setting": "endpoint: median survival time, dose: 50.0 mg/kg/injection, schedule: Q01DX009 (ip), vehicle: water", "result": "151 % of control"}, {"measurement": "T/C", "setting": "endpoint: median survival time, dose: 80.0 mg/kg/injection, schedule: Q01DX009 (ip), vehicle: dextrose", "result": "103 % of control"}, {"measurement": "T/C", "setting": "endpoint: median survival time, dose: 100.0 mg/kg/injection, schedule: Q01DX009 (ip), vehicle: water", "result": "88 % of control"}]}
{"smiles": "CC(=O)SC(c1ccccc1)(c1ccccc1)c1ccccc1", "values": [{"measurement": "T/C", "setting": "[4]", "result": "95 % of control and 103 % of control"}, {"measurement": "T/C", "setting": "endpoint: mean survival time, dose: 200.0 mg/kg/injection, schedule: Q04DX003 (ip), vehicle: saline with Tween-80", "result": "91 % of control and 97 % of control"}, {"measurement": "T/C", "setting": "endpoint: mean survival time, dose: 400.0 mg/kg/injection, schedule: Q04DX003 (ip), vehicle: saline with Tween-80", "result": "90 % of control and 100 % of control"}]}
{"smiles": "CC(C)(CN(Cc1ccccc1)Cc1ccccc1)[N+](=O)[O-]", "values": [{"measurement": "T/C", "setting": "[5]", "result": "98 % of control"}, {"measurement": "T/C", "setting": "[6]", "result": "98 % of control"}, {"measurement": "T/C", "setting": "[7]", "result": "90 % of control"}]}
{"smiles": "CCCC(P(=O)(c1ccccc1)c1ccccc1)[P+](CC)(c1ccccc1)c1ccccc1", "note": "(stereo unspecified)", "values": [{"measurement": "T/C", "setting": "endpoint: mean survival time, dose: 6.25 mg/kg/injection, schedule: Q04DX002 (ip), vehicle: saline with Tween-80", "result": "100 % of control"}, {"measurement": "T/C", "setting": "[1]", "result": "96 % of control"}, {"measurement": "T/C", "setting": "[2]", "result": "92 % of control"}]}
{"smiles": "CN(C)N=Nc1ccc(S(N)(=O)=O)cc1C(N)=O", "values": [{"measurement": "T/C", "setting": "endpoint: mean survival time, dose: 18.8 mg/kg/injection, schedule: Q01DX009 (ip), vehicle: Klucel (hydroxypropylcellulose) (HPC)", "result": "96 % of control and 106 % of control"}, {"measurement": "T/C", "setting": "endpoint: mean survival time, dose: 37.5 mg/kg/injection, schedule: Q01DX009 (ip), vehicle: Klucel (hydroxypropylcellulose) (HPC)", "result": "98 % of control and 110 % of control"}, {"measurement": "T/C", "setting": "endpoint: mean survival time, dose: 75.0 mg/kg/injection, schedule: Q01DX009 (ip), vehicle: Klucel (hydroxypropylcellulose) (HPC)", "result": "120 % of control"}, {"measurement": "T/C", "setting": "endpoint: mean survival time, dose: 300.0 mg/kg/injection, schedule: Q01DX009 (ip), vehicle: Klucel (hydroxypropylcellulose) (HPC)", "result": "117 % of control and 111 % of control"}]}
{"smiles": "CCCCCCCCCC(=O)CCCCC", "values": [{"measurement": "T/C", "setting": "endpoint: mean survival time, dose: 100.0 mg/kg/injection, schedule: Q04DX003 (ip), vehicle: other", "result": "89 % of control"}, {"measurement": "T/C", "setting": "endpoint: mean survival time, dose: 200.0 mg/kg/injection, schedule: Q04DX003 (ip), vehicle: other", "result": "94 % of control"}, {"measurement": "T/C", "setting": "endpoint: mean survival time, dose: 400.0 mg/kg/injection, schedule: Q04DX003 (ip), vehicle: other", "result": "103 % of control"}]}
{"smiles": "Nc1cc2[nH]c(=O)c3ccccc3c2cc1Br", "values": [{"measurement": "T/C", "setting": "endpoint: mean survival time, dose: 100.0 mg/kg/injection, schedule: Q01DX001 (ip), vehicle: carboxymethylcellulose (CMC)", "result": "103 % of control"}, {"measurement": "T/C", "setting": "endpoint: mean survival time, dose: 200.0 mg/kg/injection, schedule: Q01DX001 (ip), vehicle: carboxymethylcellulose (CMC)", "result": "97 % of control"}, {"measurement": "T/C", "setting": "endpoint: mean survival time, dose: 400.0 mg/kg/injection, schedule: Q01DX001 (ip), vehicle: carboxymethylcellulose (CMC)", "result": "100 % of control"}]}
{"smiles": "O=c1nc(Oc2ccccc2)nc2ncccn12", "values": [{"measurement": "T/C", "setting": "endpoint: mean survival time, dose: 3.12 mg/kg/injection, schedule: Q01DX009 (ip), vehicle: saline with Tween-80", "result": "100 % of control and 108 % of control"}, {"measurement": "T/C", "setting": "endpoint: mean survival time, dose: 6.25 mg/kg/injection, schedule: Q01DX009 (ip), vehicle: saline with Tween-80", "result": "100 % of control and 101 % of control"}, {"measurement": "T/C", "setting": "endpoint: mean survival time, dose: 12.5 mg/kg/injection, schedule: Q01DX009 (ip), vehicle: saline with Tween-80", "result": "97 % of control and 101 % of control"}, {"measurement": "T/C", "setting": "endpoint: mean survival time, dose: 25.0 mg/kg/injection, schedule: Q01DX009 (ip), vehicle: saline with Tween-80", "result": "98 % of control and 99 % of control"}, {"measurement": "T/C", "setting": "[5]", "result": "97 % of control and 102 % of control"}]}
{"smiles": "COC1=C(Br)C(O)C2(C=C1Br)CC(C(=O)NCCCCNC(=O)C1=NOC3(C=C(Br)C(OC)=C(Br)C3O)C1)=NO2", "note": "(stereo unspecified)", "values": [{"measurement": "T/C", "setting": "[3]", "result": "94 % of control"}, {"measurement": "T/C", "setting": "endpoint: mean survival time, dose: 100.0 mg/kg/injection, schedule: Q04DX002 (ip), vehicle: saline with Tween-80", "result": "94 % of control"}, {"measurement": "T/C", "setting": "endpoint: mean survival time, dose: 200.0 mg/kg/injection, schedule: Q04DX002 (ip), vehicle: saline with Tween-80", "result": "97 % of control"}, {"measurement": "T/C", "setting": "endpoint: mean survival time, dose: 400.0 mg/kg/injection, schedule: Q04DX002 (ip), vehicle: saline with Tween-80", "result": "86 % of control"}]}
{"smiles": "COC(=O)C(CSCc1ccccc1)NC(=O)C(C)NC(=O)OCc1ccccc1", "note": "(stereo unspecified)", "values": [{"measurement": "T/C", "setting": "[6]", "result": "88 % of control"}, {"measurement": "T/C", "setting": "[7]", "result": "92 % of control"}, {"measurement": "T/C", "setting": "endpoint: mean survival time, dose: 400.0 mg/kg/injection, schedule: Q01DX009 (ip), vehicle: saline with Tween-80", "result": "92 % of control"}]}
